From patent US20140357512A1, “HISTONE DEACETYLASE (HDAC) BIOMARKERS IN MULTIPLE MYELOMA” (priority 2013, published 2014)

Test system: human myeloma cell line MM.1S
Experiment: SILAC acetylated-lysine peptide profiling, HDAC inhibitor vs DMSO (light/heavy ratio)
Type: cell-based
Text: An embodiment of the invention comprises utilizing the SILAC method in order to quantitate changes in protein expression between two or more populations of cells. The SILAC method is a technique based on mass spectrometry that detects differences in protein abundance among samples using non-radioactive isotopic labeling. The SILAC method is known in the art, and described in detail in Ong et al., “Stable Isotope Labeling by Amino Acids in Cell Culture, SILAC, as a Simple and Accurate Approach to Expression Proteomics”, Molecular & Cellular Proteomics, vol. 1, pp. 376-386 (2002), which is incorporated herein by reference in its entirety.
Briefly, the SILAC method involves growing two populations of cells in cell culture. The first population of cells is grown in growth media containing normal amino acids (“normal media”). The second population of cells is grown in media lacking a standard essential amino acid (such as lysine), but is then supplemented with a non-radioactive, isotopically labeled form of that essential amino acid (such as lysine labeled with ^13C atoms, rather than normal ^12C atoms), which is called “heavy media”. When the two populations of cells are each growing in the medium, they incorporate the amino acids into all of their proteins. The growth of cells maintained in the heavy media is no different from that in normal media. All peptides containing the heavy amino acids are heavier than their normal counterparts. The cells from each of the two populations of cells are lysed. The lysates from each of the two cell populations are then combined. The combined cell lysates are then analyzed by mass spectrometry. Pairs of chemically identical peptides of different stable isotope composition can be differentiated in a mass spectrometer due to their difference in mass. The ratio of peak intensities in the mass spectrum for such peptide pairs reflects the abundance ratio for the two proteins.
This example describes SILAC studies that were performed to compare the effects of three different HDAC inhibitors (Compound A, Compound B, and tubastatin A) to a control on a human multiple myeloma cell line. The HDAC inhibitors were also compared amongst themselves to determine differences in their effects.
A human myeloma cell line MM.1S was grown using either ^12C (light) or ^13C (heavy) lysine containing culture medium. The “heavy” cells were treated with DMSO as the control, and the “light” cells were treated with a single HDAC inhibitor at 37° C. for 6 hours. The heavy and light cells were lysed, and the lysates were mixed in 1:1 ratio and digested with the protease trypsin. The acetylated lysine containing peptides (due to the action of the HDAC inhibitor) in the digested peptide pool were captured by a non-specific anti-acetylated lysine antibody cocktail (the antibodies identify both light and heavy acetylated peptides), and subjected to mass spectrometry analysis in order to identify thousands of individual peptides.
Thousands of peptides were identified in pairs (^12C and ^13C) due to their known mass differences. The amino acid sequence and quantitative ratio (Light/Heavy) of a given peptide in two differentially treated cell lysates were then determined and annotated with their possible protein (gene) sources.
As stated above, three HDAC inhibitors (Compound A, Compound B, and Tubastatin A) were used. Thus, the SILAC method was performed three times, with a different HDAC inhibitor compared to a control each time. Accordingly, there are three pairs of quantitative data in the table below, i.e., Compound A:DMSO, Compound B:DMSO, and Tubastatin A:DMSO. A cut-off of 1.30 fold of change (increase or decrease) was then used to determine “changed” or “+” in the table, and any peptides with a fold of change less than 1.3 fold were determined to be “unchanged” or “0” in the table. Those peptides that were not identified were marked as “NA” in the table. […]

O=C(CCCCCCNC(=O)c1cnc(N(c2ccccc2)c2ccccc2)nc1)NO [Compound A, 2-(diphenylamino)-N-(7-(hydroxyamino)-7-oxoheptyl)pyrimidine-5-carboxamide]
0.57 log 2: L/H ratio of acetylated peptide FIK(ac)IDGK (SEQ ID NO: 660, 40S ribosomal protein S4 X isoform [71], RPS4X)
0.59 log 2: L/H ratio of acetylated peptide LNQLK(ac)PGLQYK (SEQ ID NO: 667, Isoform 5 of Interleukin enhancer-binding factor 3 [413], ILF3) | L/H ratio of acetylated peptide ISK(ac)LYGDLK (SEQ ID NO: 668, cDNA FLJ61478 highly similar to Succinate dehydrogenase (ubiquinone) flavoprotein subunit mitochondrial [541], SDHA)
0.58 log 2: L/H ratio of acetylated peptide LAMVK(ac)AEPDVK (SEQ ID NO: 661, NADH dehydrogenase [ubiquinone] 1 alpha subcomplex subunit 5 [60], NDUFA5) | L/H ratio of acetylated peptide NEK(ac)LFYR (SEQ ID NO: 662, NADP-dependent malic enzyme mitochondrial [119], ME3) | L/H ratio of acetylated peptide K(ac)FVCPECSK (SEQ ID NO: 663, Isoform 1 of Transcription factor Sp3 [680], SP3) | L/H ratio of acetylated peptide DLSLDDFK(ac)GK (SEQ ID NO: 664, Thioredoxin-dependent peroxide reductase mitochondrial [91], PRDX3) | L/H ratio of acetylated peptide DLTDYLMK(ac)ILTER (SEQ ID NO: 665, Beta-actin-like protein 2 [192], ACTBL2) | L/H ratio of acetylated peptide HGASPELQK(ac)QIR (SEQ ID NO: 666, Peroxisomal membrane protein 11B [43], PEX11B)
0.61 log 2: L/H ratio of acetylated peptide […](ac)NK (SEQ ID NO: 677, Isoform Long of ES1 protein homolog mitochondrial [233], C21orf33) | L/H ratio of acetylated peptide LENDK(ac)SFR (SEQ ID NO: 678, Isoform 1 of Enoyl-CoA delta isomerase 1 mitochondrial [89], ECI1) | L/H ratio of acetylated peptide LVAMK(ac)FLR (SEQ ID NO: 679, Isoform 1 of Nucleoside diphosphate kinase B [39], NME1, NME2, NME1-NME2)
0.63 log 2: L/H ratio of acetylated peptide LAQLEEAK(ac)[…] (SEQ ID NO: 682, ATP synthase subunit b mitochondrial [139], ATP5F1)
0.62 log 2: L/H ratio of acetylated peptide KVPFGK(ac)TYCCDLK (SEQ ID NO: 680, Mitochondrial carrier homolog 2 [293], MTCH2) | L/H ratio of acetylated peptide TK(ac)[…] (SEQ ID NO: 681, Isoform 1 of Structural maintenance of chromosomes protein 2 [1160], SMC2)
0.64 log 2: L/H ratio of acetylated peptide IPVPVQK(ac)NIDQQIK (SEQ ID NO: 683, Isoform 1 of Pre-mRNA-splicing factor 38B [227], PRPF38B) | L/H ratio of acetylated peptide […](ac)K (SEQ ID NO: 684, Protein disulfide-isomerase [207], P4HB) | L/H ratio of acetylated peptide VDIRPQLLK(ac)NALQR (SEQ ID NO: 685, Isoform 1 of Heterochromatin protein 1-binding protein 3 [302], HP1BP3) | L/H ratio of acetylated peptide NQK(ac)LTATTQK (SEQ ID NO: 686, Nucleoprotein TPR [748], TPR)
0.60 log 2: L/H ratio of acetylated peptide LTSDDVK(ac)EQIYK (SEQ ID NO: 669, 40S ribosomal protein S13 [34], RPS13) | L/H ratio of acetylated peptide SCNCLLLK(ac)[…] (SEQ ID NO: 670, Isoform alpha-enolase of Alpha-enolase [343], ENO1) | L/H ratio of acetylated peptide […](ac)FLIK (SEQ ID NO: 671, Methyltransferase-like protein 7A [105], METTL7A) | L/H ratio of acetylated peptide […](ac)QLK (SEQ ID NO: 672, Annexin A6 [442], ANXA6) | L/H ratio of acetylated peptide EVK(ac)LLLLGAGESGK (SEQ ID NO: 673, Guanine nucleotide-binding protein G(k) subunit alpha [35], GNAI3) | L/H ratio of acetylated peptide […](ac)LR (SEQ ID NO: 674, Isoform 1 of Vesicle-associated membrane protein-associated protein A [125], VAPA) | L/H ratio of acetylated peptide YNWSAK(ac)AK (SEQ ID NO: 675, 60S ribosomal protein L37 [52], RPL37) | L/H ratio of acetylated peptide GNK(ac)PWISLPR (SEQ ID NO: 676, 40S ribosomal protein S4 X isoform [233], RPS4X)
0.66 log 2: L/H ratio of acetylated peptide (ac)ASNK(ac)TTLQK (SEQ ID NO: 693, Chromobox protein homolog 3 [5], CBX3) | L/H ratio of acetylated peptide GYLADPAK(ac)FPEAR (SEQ ID NO: 694, 39S ribosomal protein L15 mitochondrial [228], MRPL15) | L/H ratio of acetylated peptide SCEIK(ac)FLTFK (SEQ ID NO: 695, Isoform 2 of 39S ribosomal protein L39 mitochondrial [126], MRPL39)
0.65 log 2: L/H ratio of acetylated peptide YYK(ac)NIGLGFK (SEQ ID NO: 687, 40S ribosomal protein S11 [38], RPS11) | L/H ratio of acetylated peptide SGK(ac)YDLDFK (SEQ ID NO: 688, Isoform alpha-enolase of Alpha-enolase [256], ENO1) | L/H ratio of acetylated peptide LYGDLK(ac)HLK (SEQ ID NO: 689, cDNA FLJ61478 highly similar to Succinate dehydrogenase (ubiquinone) flavoprotein subunit mitochondrial [547], SDHA) | L/H ratio of acetylated peptide VENEAEK(ac)DLQCHAPVR (SEQ ID NO: 690, Isoform 1 of Bromodomain-containing protein 7 [103], BRD7) | L/H ratio of acetylated peptide DSLYK(ac)[…] (SEQ ID NO: 691, Isoform 1 of Clathrin heavy chain 1 [1535], CLTC) | L/H ratio of acetylated peptide TISAK(ac)YAEER (SEQ ID NO: 692, Isoform 1 of Myosin-9 [1459], MYH9)
